Read-outs that look alike come from different tables or passages of the source.
Key:
Type in all cases: in vivo
Pratylenchus coffeae = assay: Nematode control, nodules per plant: Pratylenchus coffeae; settings: 1 μM foliar application every 5 days, evaluation 35 days after, control 42
How it was run: (§1)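 Read-out: nodule count per plant at final evaluation 35 days after start. Foliar spray of 1 μM compound (ethanol stock diluted in water) repeated every 5 days, ten plants per treatment.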

Radopholus similis = assay: Nematode control, nodules per plant: Radopholus similis; settings: 1 μM foliar application every 5 days, evaluation 35 days after, control 45
How it was run: as §1

Botrytis cinerea [1] = assay: Control of Botrytis cinerea disease in tobacco (Bc-Nt); settings: 1 μM spraying every 24 hours for one week, water control 6.7
How it was run: (§2)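 Treatment: spraying at 1 μM every 24 h for 1 week after pathogen inoculation, versus water. Scoring differed by pathogen: Botrytis by lesion diameter, Alternaria by fraction of leaves with symptoms, Nocardia by plant mortality.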

Botrytis cinerea [2] = assay: Control of Botrytis cinerea disease in tomato (Bc-SI); settings: 1 μM spraying every 24 hours for one week, water control 7.4
How it was run: as §2

Botrytis cinerea [3] = assay: Control of Botrytis cinerea disease in Arabidopsis (Bc-At); settings: 1 μM spraying every 24 hours for one week, water control 8.7
How it was run: as §2

Rhizoctonia solani [4] = assay: Control of Rhizoctonia solani disease in tobacco (Rs-Nt); settings: 1 μM spraying every 24 hours for one week, water control 87
Meloidogyne incognita = assay: Nematode control, nodules per plant: Meloidogyne incognita; settings: 1 μM foliar application every 5 days, evaluation 35 days after, control 34
How it was run: as §1

Rhizoctonia solani [5] = assay: Control of Rhizoctonia solani disease in tomato (Rs-SI); settings: 1 μM spraying every 24 hours for one week, water control 96
[6] = tested on: Candidatus 'Liberibacter asiaticus'; settings: spraying every 15 days, 12 months after treatment, Citrus sinensis with HLB
Alternaria solani = assay: Control of Alternaria solani disease in tomato (As-SI); settings: 1 μM spraying every 24 hours for one week, water control 68
How it was run: as §2

Nocardia sp = assay: Control of Nocardia sp disease in tobacco (N-Nt); settings: 1 μM spraying every 24 hours for one week, water control 58
How it was run: as §2

Phytophthora parasitica = assay: Control of Phytophthora parasitica disease in tobacco (Pp-Nt); settings: 1 μM spraying every 24 hours for one week, water control 91

Structure (SMILES)	Pc: number of nodules per plant (Pratylenchus coffeae)	Rs: number of nodules per plant (Radopholus similis)	Bc-Nt: mean of the diameter of the lesion (Botrytis cinerea [1]) [mm]	Bc-SI: mean of the diameter of the lesion (Botrytis cinerea [2]) [mm]	Bc-At: mean of the diameter of the lesion (Botrytis cinerea [3]) [mm]	Rs-Nt: percentage of mortality (Rhizoctonia solani [4]) [%]	Mi: number of nodules per plant (Meloidogyne incognita)	Rs-SI: percentage of mortality (Rhizoctonia solani [5]) [%]	Titers of the bacterium ([6]; 0.001 μM) [copies per reaction]	Titers of the bacterium ([6]; 0.01 μM) [copies per reaction]	Titers of the bacterium ([6]; 1 μM) [copies per reaction]	Titers of the bacterium ([6]; 5 μM) [copies per reaction]	Titers of the bacterium ([6]; 10 μM) [copies per reaction]	As-SI: percentage of leaves with the disease symptoms (Alternaria solani) [%]	N-Nt: percentage of mortality (Nocardia sp) [%]	Pp-Nt: percentage of mortality (Phytophthora parasitica) [%]
Cc1c2c(oc(=O)c1CC(=O)NCC(O)CO)C=CC1C(C3CCCCC3)=COC21 (stereo not shown) [IIJ, 2-{5-cyclohexyl-13-methyl-11-oxo-3,10-dioxatricyclo[7.4.0.0^{2,6}]trideca-1(9),4,7,12-tetraen-12-yl)-N-(2,3-dihydroxypropyl)acetamide]	2	12	0.9	1.2	0.7	4	4	2	435	1	1	45	6541	3	2	1
O=C(CCc1cc2cc3c(-n4cccc4)coc3cc2oc1=O)NCC(O)CO (stereo not shown) [IG, N-(2,3-dihydroxypropyl)-3-[2-oxo-6-(1H-pyrrol-1-yl)-2H-furo[3,2-g]chromen-3-yl]propanamide]	0	31	0.3	0.8	1.2	0	0	1	657	11	1	65	5423	7	0	3
Cc1nc(N2CCN(c3ccccc3)CC2)ncc1C(=O)N1CC2CC(O)C(O)CC2C1 (stereo not shown) [IIID, 2-{[4-methyl-2-(4-phenylpiperazin-1-yl)pyrimidin-5-yl]carbonyl}-octahydro-1H-isoindole-5,6-diol]	18	0	2.0	1.6	1.1	0	0	2	985	1	0	98	9653	8	1	0
O=C(c1ccc(OC2CCN(CC(O)CO)CC2)cc1)N1CCC(C2CCCCC2)C1 (stereo not shown) [IVE]	2	14	0.9	0.8	0.5	4	4	2	985	0	0	98	9845	3	2	1
O=C(CCc1cc2cc3c(C4CCCCC4)coc3cc2oc1=O)NCC(O)CO (stereo not shown) [IC, 3-{6-cyclohexyl-2-oxo-2H-furo[3,2-g]chromen-3-yl}-N-(2,3-dihydroxypropyl)propanamide]	22	13	0.9	0.8	0.5	4	4	2	432	9	0	43	9632	3	2	1
Cc1c(CCC(=O)NCC(O)CO)c(=O)oc2cc3occ(C4CCCC4)c3cc12 (stereo not shown) [IK, 3-{6-cyclopentyl-4-methyl-2-oxo-2H-furo[3,2-g]chromen-3-yl}-N-(2,3-dihydroxypropyl)propanamide]	15	0	1.5	0.8	2.4	0	0	2	435	0	0	45	6521	8	1	0
CN1c2cc(C(N)=O)ccc2OCC1CC(=O)NC(CO)CO (stereo not shown) [VJ, 3-{[(1,3-dihydroxypropan-2-yl)carbamoyl]methyl}-4-methyl-3,4-dihydro-2H-1,4-benzoxazine-6-carboxamide]	14	0	0.3	0.8	1.2	0	0	2	456	0	0	56	1351	8	1	0

Reference: patent US11013235B2 (priority 2015, dated 2021)
